Measurements published in patent EP1247803A2, “Indolinone compounds suitable for modulation of protein kinases” (Sugen, Inc., priority 1996, dated 1998).

Columns and labels:
[1] = target: T1, EGFR (Homo sapiens, UniProt P00533); assay: EGFR ELISA assay (in vitro kinase activity, EGFR captured from A431 cell lysate); type: biochemical; design: concentration or dose not given beside the values
T1 construct: Add 7 ug A431 cell lysate per well (EGFR source); endogenous in cells; host or cells: A431
T1 sequence (P00533 25-1210): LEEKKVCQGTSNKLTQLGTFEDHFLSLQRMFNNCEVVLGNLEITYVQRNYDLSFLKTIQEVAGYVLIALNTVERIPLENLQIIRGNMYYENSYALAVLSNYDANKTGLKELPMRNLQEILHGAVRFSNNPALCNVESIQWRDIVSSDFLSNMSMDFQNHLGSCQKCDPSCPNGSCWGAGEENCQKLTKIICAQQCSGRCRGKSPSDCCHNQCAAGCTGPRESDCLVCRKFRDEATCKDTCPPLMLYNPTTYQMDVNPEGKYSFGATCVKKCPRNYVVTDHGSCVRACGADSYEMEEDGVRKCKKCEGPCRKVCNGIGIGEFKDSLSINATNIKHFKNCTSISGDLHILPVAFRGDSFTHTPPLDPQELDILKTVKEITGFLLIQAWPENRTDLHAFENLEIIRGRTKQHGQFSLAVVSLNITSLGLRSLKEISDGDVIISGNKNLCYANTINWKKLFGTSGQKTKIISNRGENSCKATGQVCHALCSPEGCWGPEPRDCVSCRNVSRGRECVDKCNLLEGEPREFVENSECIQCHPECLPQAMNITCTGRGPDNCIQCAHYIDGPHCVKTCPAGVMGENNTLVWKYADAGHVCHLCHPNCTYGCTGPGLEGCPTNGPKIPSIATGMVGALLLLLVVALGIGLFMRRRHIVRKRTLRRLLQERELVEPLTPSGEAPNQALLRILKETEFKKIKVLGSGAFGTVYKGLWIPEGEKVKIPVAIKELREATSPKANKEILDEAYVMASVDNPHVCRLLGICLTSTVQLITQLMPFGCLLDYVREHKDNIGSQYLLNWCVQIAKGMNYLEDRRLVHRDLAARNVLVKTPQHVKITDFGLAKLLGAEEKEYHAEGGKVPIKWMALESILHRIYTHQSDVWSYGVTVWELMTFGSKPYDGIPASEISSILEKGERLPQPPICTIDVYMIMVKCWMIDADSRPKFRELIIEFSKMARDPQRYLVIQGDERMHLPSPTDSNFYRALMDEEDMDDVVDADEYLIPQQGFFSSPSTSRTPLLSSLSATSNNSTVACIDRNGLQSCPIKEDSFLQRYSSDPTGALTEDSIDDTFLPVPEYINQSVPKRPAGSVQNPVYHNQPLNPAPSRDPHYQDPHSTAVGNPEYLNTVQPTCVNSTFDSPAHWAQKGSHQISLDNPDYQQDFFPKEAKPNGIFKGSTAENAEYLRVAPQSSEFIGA
Outline: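 EGFR from A431 lysate was captured on plates coated with anti-EGFR antibody. Compounds were added 30 min before a 5 min phosphorylation with 3 µM ATP/5 mM MnCl2, which was stopped with 20 mM EDTA. Phosphotyrosine was detected with rabbit anti-phosphotyrosine, then a peroxidase-conjugated secondary and ABTS/H2O2, read at 410 nm.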

[2] = system: MET; assay: MET biochemical kinase assay; design: species or system human; concentration or dose not given beside the values
Outline: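 Immunocaptured MET autophosphorylation, read colorimetrically (TMB) via HRP anti-phosphotyrosine antibody. Kinase reaction initiated with buffer containing ATP and divalent metals after compound addition to plate-bound receptor from lysates.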

| SMILES | Biochem EGFR %Inhibition [1] [%] | Met Kinase % Inhibition [2] [%] |
| --- | --- | --- |
| Cc1cc2occ(C=C3C(=O)Nc4ccc(Br)c(C)c43)c(=O)c2cc1C [10731/C03] | 9.1 | 38.7 |
| Cc1cc(C=C2C(=O)Nc3ccc(S(=O)(=O)N4CCOCC4)cc32)oc1C [10730/F11] | -24.1 | 53.6 |
| CC(=O)n1cc(C=C2C(=O)Nc3ccc(CCCl)cc32)c2ccccc21 [10730/G05] | -18.2 | 35.8 |
| CN1C(=O)C(=C2C(=O)Nc3c(Br)cc(Br)cc32)c2ccccc21 [10731/A10] | 26.3 | 41.2 |
| O=C1Nc2ccc(I)cc2C1=Cc1c[nH]c(=O)[nH]c1=O [10731/B08] | 37.2 | 57.4 |
| Cc1c(Br)ccc2c1C(=Cc1coc3ccc([N+](=O)[O-])cc3c1=O)C(=O)N2 [10731/C07] | 35.5 | -11.6 |
| Cc1c(Br)ccc2c1C(=C1C(=O)N(C)c3ccccc31)C(=O)N2 [10731/C10] | 20.9 | 23.3 |
| O=C1Nc2ccc(CCCl)cc2C1=Cc1cc2ccccc2nc1Cl [10730/G08] | 9.5 | 16.6 |
| Cc1cc(C=C2C(=O)Nc3ccc(CCCl)cc32)oc1C [10730/G11] | 26.2 | 46.1 |
| CCOC(=O)c1cc(C=C2C(=O)Nc3ccc(Br)c(C)c32)oc1C [10718/C06] | 5.6 | 3.9 |
| COc1ccc2[nH]cc(C=C3C(=O)Nc4ccc(I)cc43)c2c1 [10731/B09] | 15.0 | 29.6 |
| CC(C)c1ccc2occ(C=C3C(=O)Nc4c(Br)cc(Br)cc43)c(=O)c2c1 [10731/A05] | 34.3 | 85.8 |
| COc1ccc(C=C2C(=O)Nc3ccc(CCCl)cc32)c(OC)c1OC [10730/G02] | 20.8 | 41.1 |
| CCn1c2ccccc2c2cc(C=C3C(=O)Nc4ccc(Br)c(C)c43)ccc21 [10731/C02] | -6.9 | 11.1 |
| COC(=O)c1[nH]c(C)c(C=C2C(=O)Nc3ccc(Br)c(C)c32)c1C(=O)OC [10718/C07] | -4.9 | 29.6 |
| COc1ccc2[nH]cc(C=C3C(=O)Nc4c(Br)cc(Br)cc43)c2c1 [10731/A09] | 21.9 | 46.7 |
| Cc1ccc2occ(C=C3C(=O)Nc4ccc(I)cc43)c(=O)c2c1 [10731/B06] | 37.5 | 56.2 |
| O=C1Nc2ccc(I)cc2C1=Cc1coc2ccc([N+](=O)[O-])cc2c1=O [10731/B07] | 29.1 | 41.6 |
| Cc1cc2occ(C=C3C(=O)Nc4c(Br)cc(Br)cc43)c(=O)c2cc1C [10731/A03] | 10.8 | 54.8 |
| Cc1ccc2occ(C=C3C(=O)Nc4c(Br)cc(Br)cc43)c(=O)c2c1 [10731/A06] | 30.1 | 53.0 |
| Cc1ccc2occ(C=C3C(=O)Nc4ccc(Br)c(C)c43)c(=O)c2c1 [10731/C06] | 23.1 | 18.2 |
| COC1CC(C=C2C(=O)Nc3ccc(S(=O)(=O)N4CCOCC4)cc32)C(OC)O1 (centres unmarked) [10730/F10] | 6.2 | 42.1 |
| CCn1c2ccccc2c2cc(C=C3C(=O)Nc4ccc(I)cc43)ccc21 [10731/B02] | 15.5 | 71.6 |

| SMILES | Biochem EGFR %Inhibition [1] [%] | Met Kinase % Inhibition [2] [%] |
| --- | --- | --- |
| O=C1Nc2c(Br)cc(Br)cc2C1=Cc1c[nH]c(=O)[nH]c1=O [10731/A08] | 25.7 | 59.9 |
| CCOC(=O)CCc1c(C(=O)OCC)[nH]c(C=C2C(=O)Nc3ccc(Br)c(C)c32)c1CC(=O)OCC [10718/C05] | 10.9 | 8.7 |
| O=C1Nc2ccc(S(=O)(=O)N3CCOCC3)cc2C1=Cc1coc2c(Br)cc(Br)cc2c1=O [10730/F09] | 17.9 | 71.1 |
| CN1C(=O)C(=C2C(=O)Nc3ccc(I)cc32)c2ccccc21 [10731/B10] | 50.5 | 72.9 |
| C=C(C)C1CC=C(C=C2C(=O)Nc3ccc(Br)c(C)c32)CC1 (centres unmarked) [10731/C04] | 31.0 | 32.5 |
| C=C(C)C1CC=C(C=C2C(=O)Nc3c(Br)cc(Br)cc32)CC1 (centres unmarked) [10731/A04] | 20.2 | 43.6 |
| O=C1Nc2c(Br)cc(Br)cc2C1=Cc1coc2ccc([N+](=O)[O-])cc2c1=O [10731/A07] | 39.4 | 49.5 |
| CC(C)c1ccc2occ(C=C3C(=O)Nc4ccc(I)cc43)c(=O)c2c1 [10731/B05] | 35.9 | 86.0 |
| COC1CC(C=C2C(=O)Nc3ccc(CCCl)cc32)C(OC)O1 (centres unmarked) [10730/G10] | 3.1 | 42.1 |
| Cc1c(O)ccc(C=C2C(=O)Nc3ccc(Br)c(C)c32)c1O [10718/C09] | 26.5 | 38.2 |
| CCn1c2ccccc2c2cc(C=C3C(=O)Nc4ccc(S(=O)(=O)NC)cc43)ccc21 [10731/D02] | 4.9 | 8.7 |
| COc1cc(C=C2C(=O)Nc3ccc(CCCl)cc32)cc(OC)c1OC [10730/G04] | -6.7 | 47.7 |
| COc1ccc2[nH]cc(C=C3C(=O)Nc4ccc(Br)c(C)c43)c2c1 [10731/C09] | 16.8 | 22.7 |
| O=C1Nc2ccc(CCCl)cc2C1=Cc1ccc(-c2ccccc2Cl)o1 [10730/G07] | 6.4 | 26.2 |
| Cc1c(Br)ccc2c1C(=Cc1c[nH]c(=O)[nH]c1=O)C(=O)N2 [10731/C08] | 23.6 | 25.8 |
| Cc1cc2occ(C=C3C(=O)Nc4ccc(I)cc43)c(=O)c2cc1C [10731/B03] | 12.3 | 60.9 |
| Cc1c(Br)ccc2c1C(=Cc1ccc(Cl)c([N+](=O)[O-])c1)C(=O)N2 [10718/C08] | 13.1 | 22.7 |
| CCn1c2ccccc2c2cc(C=C3C(=O)Nc4c(Br)cc(Br)cc43)ccc21 [10731/A02] | 14.8 | 23.9 |
| C=C(C)C1CC=C(C=C2C(=O)Nc3ccc(I)cc32)CC1 (centres unmarked) [10731/B04] | 31.3 | 71.0 |
| COc1cc(OC)c(OC)cc1C=C1C(=O)Nc2ccc(CCCl)cc21 [10730/G03] | -6.9 | 43.2 |
| CNS(=O)(=O)c1ccc2c(c1)C(=Cc1coc3cc(C)c(C)cc3c1=O)C(=O)N2 [10731/D03] | 16.3 | 40.2 |
| Cc1c(Br)ccc2c1C(=Cc1coc3ccc(C(C)C)cc3c1=O)C(=O)N2 [10731/C05] | 35.5 | 78.3 |
| O=C1Nc2c(Br)cc(Br)cc2C1=Cc1ccc[nH]1 [10717/A09] | 37.7 | 9.4 |
